Laboratory results from ChEMBL document CHEMBL3734692, “Design and synthesis of 2-oxindole based multi-targeted inhibitors of PDK1/Akt signaling pathway for the treatment of glioblastoma multiforme” (Eur J Med Chem, 2015).
The source made the active and inactive calls. The rule behind the calls is not given here.

Key:
[1] = target: Aurora kinase A (Homo sapiens) (UniProt O14965); assay: Inhibition of AURKA (unknown origin) at 1 uM by selectscreen kinase profiling assay in presence of ATP
[2] = Cell cycle arrest in human ANGM-CSS cells assessed as accumulation at G0/G1 phase at 1 uM after 7 days by based fluorescent reagent based cell analysis (reference value: 60.7%); format: functional
ANGM-CSS = assay: Effect on human GSC morphology derived from ANGM-CSS cells assessed as reduction in area occupied by floating spheres at 1 uM after 7 days by microscopic analysis; format: functional, cell-based
[3] = target: T1, 3-phosphoinositide-dependent protein kinase 1 (Homo sapiens, UniProt O15530); assay: Inhibition of PDK1 (unknown origin) incubated for 1 hr by Z'Lyte assay
T1 sequence (O15530 whole entry): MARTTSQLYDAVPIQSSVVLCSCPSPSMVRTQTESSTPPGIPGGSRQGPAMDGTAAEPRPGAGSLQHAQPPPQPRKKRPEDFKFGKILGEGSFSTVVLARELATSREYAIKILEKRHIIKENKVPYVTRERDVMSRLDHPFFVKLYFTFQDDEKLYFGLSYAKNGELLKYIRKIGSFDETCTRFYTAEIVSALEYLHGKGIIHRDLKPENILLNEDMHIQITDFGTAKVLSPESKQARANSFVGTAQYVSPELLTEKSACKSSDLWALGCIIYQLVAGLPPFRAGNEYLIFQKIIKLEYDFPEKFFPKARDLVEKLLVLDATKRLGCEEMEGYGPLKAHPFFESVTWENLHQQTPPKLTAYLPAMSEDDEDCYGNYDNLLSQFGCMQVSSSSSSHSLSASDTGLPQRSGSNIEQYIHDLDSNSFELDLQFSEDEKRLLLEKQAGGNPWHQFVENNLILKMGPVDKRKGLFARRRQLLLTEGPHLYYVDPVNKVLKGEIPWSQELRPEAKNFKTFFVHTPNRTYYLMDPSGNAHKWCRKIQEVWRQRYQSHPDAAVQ

Chain of Aurora kinase A (Homo sapiens) (O14965 whole entry): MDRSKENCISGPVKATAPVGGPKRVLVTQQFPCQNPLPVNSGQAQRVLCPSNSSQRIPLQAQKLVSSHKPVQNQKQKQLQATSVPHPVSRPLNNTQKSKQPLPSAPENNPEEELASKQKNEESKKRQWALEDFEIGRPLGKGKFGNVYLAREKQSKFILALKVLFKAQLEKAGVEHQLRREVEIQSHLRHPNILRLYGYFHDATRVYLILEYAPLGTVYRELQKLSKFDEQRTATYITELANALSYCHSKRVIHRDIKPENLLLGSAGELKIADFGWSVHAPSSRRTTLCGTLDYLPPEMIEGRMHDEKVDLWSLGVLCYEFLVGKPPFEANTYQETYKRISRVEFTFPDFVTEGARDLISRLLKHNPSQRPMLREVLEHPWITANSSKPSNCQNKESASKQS

**Q.** Which inhibition [1] does the source give for `COc1cc2c(cc1OC)CN(CC(=O)Nc1ccc3c(c1)/C(=C/c1cnc[nH]1)C(=O)N3)CC2` here?
**A.** 37%

**Q.** What about the Activity [2] of the same molecule?
**A.** 72.6%

**Q.** What about the Activity (ANGM-CSS) of the same molecule?
**A.** Active

**Q.** What about the IC50 [3] of the same molecule?
**A.** 980 nM
